{"source": "patent US10696707B2", "about": "“Polyene macrolide derivative” (Shionogi & Co., Ltd., priority 2014, dated 2020)", "type_in_all_cases": "cell-based", "key": {"C. albicans ATCC90028": {"test_system": "C. albicans ATCC90028", "test": "Antifungal activity test, MIC by broth microdilution (CLSI M27-A3)", "protocol": "(§1) The Minimum Inhibitory Concentration (MIC) values of the present compound against yeast and filamentous fungi were determined by broth microdilution assay according to the Clinical Laboratory Standards Institute (CLSI) guidelines outlined in documents M27-A3 and M38-A2. The medium used in the assay consisted of RPMI1640 (with glutamine, without bicarbonate) with 2% glucose and 0.165 mol/L morpholinepropanesulfonic acid (MOPS) with pH adjusted to 7.0 using 1 mol/L sodium hydroxide. The present compound was dissolved in dimethyl sulfoxide (DMSO). A series of two-fold dilutions were prepared in DMSO, and then 2 μL of the diluted compound was added to each well in 96-well sterile plates. Each inoculum was prepared by diluting a suspension of Candida spp. or a conidia suspension of Aspergillus spp. suspended in sterile saline solution, and then 200 μL was added to each well to a predetermined concentration using RPMI/MOPS (final concentration for each solution: approximately 1×10^3 cells/mL and approximately 1×10^4 CFU/mL). Plates of Candida spp. and Aspergillus spp. were incubated at 35° C. for 24-48 hours. The MIC was defined as the lowest concentration giving 100% inhibition compared to the growth control."}, "A. flavus ATCC204304": {"test_system": "A. flavus ATCC204304", "test": "Antifungal activity test, MIC by broth microdilution (CLSI M38-A2)", "protocol": "as §1"}, "A. fumigatus ATCC204305": {"test_system": "A. fumigatus ATCC204305", "test": "Antifungal activity test, MIC by broth microdilution (CLSI M38-A2)", "protocol": "as §1"}, "[1]": {"test_system": "red blood cells (5% RBC suspension)", "test": "Test Example 2-1: in vitro hemolytic activity test (upper limit 50, 80, 100 or 200 μmol/L)", "conditions": "hemolysis method 50 (upper concentration 50 μmol/L), 5% RBC suspension, 37° C., one hour, read-out: hemolysis IC50", "protocol": "Nephrotoxic potentials of the compounds of the present invention except the compounds whose X is —N(R^F)—CO—X^1 and X^1 is the group represented by formula (III) and T is —N(R^a5)— were investigated by in vitro hemolytic activity test under the condition, in that, the upper limit was 50 μmol/L, 80 μmol/L, 100 μmol/L, or 200 μmol/L as the required concentration to 50% of hemolysis (IC50).\nDefibrinated sterile blood was centrifuged at 700×g for 3 minutes and, and the supernatant was removed for 100% of red blood cells. After the cleaning with physiological saline, the washed blood cells was suspended in the medium (Earle's balanced salt sodium, bicarbonate, 0.1 g/L L-glutamine without phenol red), and was diluted by 5% (5% RBC suspension).\nThe washed blood was diluted by 5% in water for injection (solution of complete hemolysis), and was used as the indication of optical density for complete hemolysis.\nThe compounds of the present invention solution in DMSO (several and doubling dilutions starting from 2.5 mmol/L, 4 mmol/L, 5 mmol/L, or 10 mmol/L), DMSO as the negative control, and Amphotericin B as the positive control were used, and each 5 μL of these was added in to a well of V-form 96 well type microplate.\nFinally, the maximum concentration of the compounds of the present invention solution in DMSO was 50 μmol/L, 80 μmol/L, 100 μmol/L, or 200 μmol/L by adding 245 μL of the medium or 5% RBC suspension into the well.\nTwo hundred fifty μL of the solution of complete hemolysis was added into another well and the microplate was incubated at 37° C. in 5% of CO2 concentration for an hour.\nAfter the incubation, each 100 μL of supernatants in wells was collected by centrifugation of the microplate at 300×g for 5 minutes and was located on a well of flat-form 96 well type microplate. An absorbance of each supernatant was measured at wavelength of 540 nm.\nPercent hemolysis was calculated by using the followed equation. The required concentration to 50% of hemolysis (IC50) was calculated based on the percent hemolysis. […] Hemolysis (%)=(CR−VM)×100÷(VL−VR) Where:\nCR: Absorbance of 5% RBC suspension incubated with the compounds of the present invention solution in DMSO\nVM: Absorbance of medium incubated with the compounds of the present invention solution in DMSO\nVL: Absorbance of solution of complete hemolysis\nVR: Absorbance of 5% RBC suspension incubated with DMSO\nThe “hemolysis method” in the table means any tests the upper concentration of above IC50 are 50 μmol/L, 80 μmol/L, 100 μmol/L or 200 μmol/L. The “>50”, “>80”, “>100” or “>200” in the table means above IC50 value exceeded the each upper concentration."}, "[2]": {"conditions": "C. albicans ATCC90028, broth microdilution, 35° C., 24-48 hours, 100% inhibition"}, "[3]": {"conditions": "A. flavus ATCC204304, broth microdilution, 35° C., 24-48 hours, 100% inhibition"}, "[4]": {"conditions": "A. fumigatus ATCC204305, broth microdilution, 35° C., 24-48 hours, 100% inhibition"}, "[5]": {"conditions": "C. albicans ATCC90028, lowest concentration giving 100% inhibition, 35° C., 24-48 hours"}, "[6]": {"conditions": "A. flavus ATCC204304, lowest concentration giving 100% inhibition, 35° C., 24-48 hours"}, "[7]": {"conditions": "A. fumigatus ATCC204305, lowest concentration giving 100% inhibition, 35° C., 24-48 hours"}}, "note": "Like-named read-outs stand apart in the source and are kept apart here.", "data": [{"smiles": "C[C@@H]1[C@H](O)[C@@H](C)/C=C/C=C/C=C/C=C/C=C/C=C/C=C/[C@H](O[C@@H]2O[C@H](C)[C@@H](O)[C@H](N)[C@@H]2O)C[C@@H]2O[C@](O)(C[C@@H](O)C[C@@H](O)[C@H](O)CC[C@@H](O)C[C@@H](O)CC(=O)O[C@H]1C)C[C@H](O)[C@H]2NC(=O)NC1CN(CCO)C1", "note": "[I-165]", "values": [{"measurement": "MIC", "setting": "C. albicans ATCC90028; [2]", "value": 0.25, "unit": "µg/mL"}, {"measurement": "MIC", "setting": "A. flavus ATCC204304; [3]", "value": 1, "unit": "µg/mL"}, {"measurement": "MIC", "setting": "A. fumigatus ATCC204305; [4]", "value": 1, "unit": "µg/mL"}]}, {"smiles": "C[C@@H]1[C@H](O)[C@@H](C)/C=C/C=C/C=C/C=C/C=C/C=C/C=C/[C@H](O[C@@H]2O[C@H](C)[C@@H](O)[C@H](NC(=N)N)[C@@H]2O)C[C@@H]2O[C@](O)(C[C@@H](O)C[C@@H](O)[C@H](O)CC[C@@H](O)C[C@@H](O)CC(=O)O[C@H]1C)C[C@H](O)[C@H]2NC(=O)NCCC(N)=O", "note": "[I-343]", "values": [{"measurement": "MIC", "setting": "C. albicans ATCC90028; [5]", "value": 0.25, "unit": "µg/mL"}, {"measurement": "MIC", "setting": "A. flavus ATCC204304; [6]", "value": 0.5, "unit": "µg/mL"}, {"measurement": "MIC", "setting": "A. fumigatus ATCC204305; [7]", "value": 1, "unit": "µg/mL"}]}, {"smiles": "CONC(=O)N[C@H]1[C@@H]2C[C@@H](O[C@@H]3O[C@H](C)[C@@H](O)[C@H](NC(=N)N)[C@@H]3O)/C=C/C=C/C=C/C=C/C=C/C=C/C=C/[C@H](C)[C@@H](O)[C@@H](C)[C@H](C)OC(=O)C[C@H](O)C[C@H](O)CC[C@@H](O)[C@H](O)C[C@H](O)C[C@](O)(C[C@@H]1O)O2", "note": "[I-331]", "values": [{"measurement": "MIC", "setting": "C. albicans ATCC90028; [5]", "value": 0.25, "unit": "µg/mL"}, {"measurement": "MIC", "setting": "A. flavus ATCC204304; [6]", "value": 1, "unit": "µg/mL"}, {"measurement": "MIC", "setting": "A. fumigatus ATCC204305; [7]", "value": 1, "unit": "µg/mL"}]}, {"smiles": "C[C@@H]1[C@H](O)[C@@H](C)/C=C/C=C/C=C/C=C/C=C/C=C/C=C/[C@H](O[C@@H]2O[C@H](C)[C@@H](O)[C@H](N)[C@@H]2O)C[C@@H]2O[C@](O)(C[C@@H](O)C[C@@H](O)[C@H](O)CC[C@@H](O)C[C@@H](O)CC(=O)O[C@H]1C)C[C@H](O)[C@H]2NC(=O)NC[C@H](N)CO", "note": "[I-162]", "values": [{"measurement": "MIC", "setting": "C. albicans ATCC90028; [2]", "value": 0.25, "unit": "µg/mL"}, {"measurement": "MIC", "setting": "A. flavus ATCC204304; [3]", "value": 1, "unit": "µg/mL"}, {"measurement": "MIC", "setting": "A. fumigatus ATCC204305; [4]", "value": 1, "unit": "µg/mL"}]}, {"smiles": "C[C@@H]1[C@H](O)[C@@H](C)/C=C/C=C/C=C/C=C/C=C/C=C/C=C/[C@H](O[C@@H]2O[C@H](C)[C@@H](O)[C@H](N)[C@@H]2O)C[C@@H]2O[C@](O)(C[C@@H](O)C[C@@H](O)[C@H](O)CC[C@@H](O)C[C@@H](O)CC(=O)O[C@H]1C)C[C@H](O)[C@H]2NC(=O)NC[C@@H](O)CO", "note": "[I-119]", "values": [{"measurement": "MIC", "setting": "C. albicans ATCC90028; [2]", "value": 0.25, "unit": "µg/mL"}, {"measurement": "MIC", "setting": "A. flavus ATCC204304; [3]", "value": 0.5, "unit": "µg/mL"}, {"measurement": "MIC", "setting": "A. fumigatus ATCC204305; [4]", "value": 1, "unit": "µg/mL"}]}, {"smiles": "C[C@@H]1[C@H](O)[C@@H](C)/C=C/C=C/C=C/C=C/C=C/C=C/C=C/[C@H](O[C@@H]2O[C@H](C)[C@@H](O)[C@H](N)[C@@H]2O)C[C@@H]2O[C@](O)(C[C@@H](O)C[C@@H](O)[C@H](O)CC[C@@H](O)C[C@@H](O)CC(=O)O[C@H]1C)C[C@H](O)[C@H]2NC(=O)N(O)CC(N)=O", "note": "[I-273]", "values": [{"measurement": "MIC", "setting": "C. albicans ATCC90028; Candida albicans, ATCC90028", "value": 0.25, "unit": "µg/mL"}, {"measurement": "MIC", "setting": "A. flavus ATCC204304; Aspergillus flavus, ATCC204304", "value": 0.5, "unit": "µg/mL"}, {"measurement": "MIC", "setting": "A. fumigatus ATCC204305; Aspergillus fumigatus, ATCC204305", "value": 0.5, "unit": "µg/mL"}]}, {"smiles": "C[C@@H]1[C@H](O)[C@@H](C)/C=C/C=C/C=C/C=C/C=C/C=C/C=C/[C@H](O[C@@H]2O[C@H](C)[C@@H](O)[C@H](N)[C@@H]2O)C[C@@H]2O[C@](O)(C[C@@H](O)C[C@@H](O)[C@H](O)CC[C@@H](O)C[C@@H](O)CC(=O)O[C@H]1C)C[C@H](O)[C@H]2c1nc(-c2ccncc2)no1", "note": "[I-392]", "values": [{"measurement": "IC50", "setting": "[1]; Erythrocyte, 1 h", "value": "> 50", "unit": "µM"}]}, {"smiles": "CCN(O)C(=O)N[C@H]1[C@@H]2C[C@@H](O[C@@H]3O[C@H](C)[C@@H](O)[C@H](N)[C@@H]3O)/C=C/C=C/C=C/C=C/C=C/C=C/C=C/[C@H](C)[C@@H](O)[C@@H](C)[C@H](C)OC(=O)C[C@H](O)C[C@H](O)CC[C@@H](O)[C@H](O)C[C@H](O)C[C@](O)(C[C@@H]1O)O2", "note": "[I-279]", "values": [{"measurement": "IC50", "setting": "[1]", "value": "> 50", "unit": "µM"}]}]}
